Measured values from patent publication US10899758B2, “Inhibitors of the menin-MLL interaction” (Vitae Pharmaceuticals, LLC, priority 2016, dated 2021).
Where two headings read alike, the source gives them in different places.

Tests used:
[1] = tested on: human acute monocytic leukemia cell line MV-4-11; assay: Assay 2 (Cell Proliferation Assay), ATP quantitation (CellTiter-Glo); assay type: cell-based; conditions: MV-4-11 cells, read-out: Assay 2 (EC50, inhibition of cell proliferation)
How it was run: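 Cells (1.67×10^4/well, 10% FBS medium) incubated ±compound 72 h at 37 °C, 5% CO2; HL-60 served as toxicity control. ATP read by CellTiter-Glo luminescence; % inhibition scaled between DMSO and a potent menin inhibitor at ≥100×LD50.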

[2] = target: T1, menin/MLL binding (biotinylated wild-type or mutated menin and MLL-AF9 fusion protein) (Homo sapiens, UniProt O00255); assay: Assay 1 (Binding Assay): AlphaLISA menin/MLL binding; conditions: 5 nM biotinylated menin, MLL-AF9-FLAG lysate
T1 construct: biotinylated (1) wild-type menin or (2) mutated menin (described in Nature (2012) Vol. 482, pp. 542-548); fused on or other part: Biotin attached chemically (Sulfo-NHS-Biotin); no fused second protein is printed for menin
T1 sequence (O00255 1-459 limits assumed): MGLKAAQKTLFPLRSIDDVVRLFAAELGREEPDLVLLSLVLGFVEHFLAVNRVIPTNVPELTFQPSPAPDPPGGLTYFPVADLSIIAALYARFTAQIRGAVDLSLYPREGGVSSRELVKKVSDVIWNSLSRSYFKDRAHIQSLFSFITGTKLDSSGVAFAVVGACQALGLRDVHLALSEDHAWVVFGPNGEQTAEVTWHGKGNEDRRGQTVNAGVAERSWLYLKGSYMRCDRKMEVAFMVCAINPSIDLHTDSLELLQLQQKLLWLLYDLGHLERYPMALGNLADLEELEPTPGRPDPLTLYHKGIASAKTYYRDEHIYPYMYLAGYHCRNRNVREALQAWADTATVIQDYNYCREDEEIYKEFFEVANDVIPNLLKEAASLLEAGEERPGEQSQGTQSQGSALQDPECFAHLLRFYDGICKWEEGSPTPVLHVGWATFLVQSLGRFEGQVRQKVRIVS
How it was run: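 Biotinylated E. coli-expressed menin (wild-type or mutant), 5 nM, incubated 30 min RT with compound and HEK293 lysate of MLL1-1,396–AF9-FLAG in pH 7.4 Tris buffer, 5% DMSO, 1 mM DTT. Anti-FLAG acceptor and streptavidin donor beads added, 60 min RT, AlphaLISA signal read. IC50 from four-parameter fit of % inhibition.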

Row | EC50 ([1]; Homo sapiens, MV4-11, 72 h) [nM] | IC50 [2] [nM] | EC50 ([1]; 72 h) [nM] | SMILES
1 | 100 to 1000 | < 100 | – | CC(C)N(C)C(=O)c1cc(F)ccc1-n1cc([C@H]2CC[C@H](N3CC[C@H](CO)C3)CC2)c2ccncc21 [Example 104, 5-fluoro-2-(3-(trans-4-((S)-3-(hydroxymethyl)pyrrolidin-1-yl)cyclohexyl)-1H-pyrrolo[2,3-c]pyridin-1-yl)-N-isopropyl-N-methylbenzamide]
2 | ≥ 1000 | < 100 | – | CC(C)N(C)C(=O)c1cc(F)ccc1-n1cc(C2CCN(C[C@H]3CC[C@@H](O)CC3)CC2)c2ccncc21 [Example 27A, cis-(5-fluoro-2-(3-(1-((4-hydroxycyclohexyl)methyl)piperidin-4-yl)-1H-pyrrolo[2,3-c]pyridin-1-yl)-N-isopropyl-N-methylbenzamide)]
3 | < 100 | < 100 | – | CC(C)N(C(=O)c1cc(F)ccc1-n1cc(C2CCCN(Cc3ccc4c(c3)[nH]c(=O)n4CCO)C2)c2ccncc21)C(C)C (stereo not shown) [Example 84, 5-fluoro-2-(3-(1-((1-(2-hydroxyethyl)-2-oxo-2,3-dihydro-1H-benzo[d]imidazol-5-yl)methyl)piperidin-3-yl)-1H-pyrrolo[2,3-c]pyridin-1-yl)-N,N-diisopropylbenzamide]
4 | – | 100 to 1000 | ≥ 1000 | CC(C)N(C)C(=O)c1cc(F)ccc1-n1cc(C2CCC(N(C)C)CC2)c2ccncc21 (single isomer, unassigned) [Example 54A, 2-(3-(4-(dimethylamino)cyclohexyl)-1H-pyrrolo[2,3-c]pyridin-1-yl)-5-fluoro-N-isopropyl-N-methylbenzamide]
5 | < 100 | < 100 | – | CC(C)N(C(=O)c1cc(F)ccc1-n1cc(C2CCN(Cc3ccc4oc(=O)[nH]c4c3)C2)c2ccncc21)C(C)C (stereo not shown) [Example 140, 5-fluoro-N,N-diisopropyl-2-(3-(1-((2-oxo-2,3-dihydrobenzo[d]oxazol-5-yl)methyl)pyrrolidin-3-yl)-1H-pyrrolo[2,3-c]pyridin-1-yl)benzamide]
6 | 100 to 1000 | < 100 | – | CNC(=O)c1cccc(CCN2CCC(c3cn(-c4ccc(F)cc4C(=O)N(C)C(C)C)c4cnccc34)CC2)c1 [Example 26, 5-fluoro-N-isopropyl-N-methyl-2-(3-(1-(3-(methylcarbamoyl)phenethyl)piperidin-4-yl)-1H-pyrrolo[2,3-c]pyridin-1-yl)benzamide]
7 | < 100 | < 100 | – | CC(C)N(C)C(=O)c1cc(F)ccc1-n1cc(C2CCCN(Cc3ccc4[nH]c(=O)[nH]c4c3)C2)c2ccncc21 (stereo not shown) [Example 43, 5-fluoro-N-isopropyl-N-methyl-2-(3-(1-((2-oxo-2,3-dihydro-1H-benzo[d]imidazol-5-yl)methyl)piperidin-3-yl)-1H-pyrrolo[2,3-c]pyridin-1-yl)benzamide]
8 | – | < 100 | 100 to 1000 | CC(C)N(C)C(=O)c1cc(F)ccc1-n1cc(C2CCC(NCc3ccc4[nH]c(=O)[nH]c4c3)CC2)c2ccncc21 (single isomer, unassigned) [Example 60, 5-fluoro-N-isopropyl-N-methyl-2-(3-(4-(((2-oxo-2,3-dihydro-1H-benzo[d]imidazol-5-yl)methyl)amino)cyclohexyl)-1H-pyrrolo[2,3-c]pyridin-1-yl)benzamide]
9 | < 100 | < 100 | – | CC(C)N(CCO)C(=O)c1cc(F)ccc1-n1cc(C2CCN(Cc3ccccc3)CC2)c2ccncc21 [Example 36, 2-(3-(1-benzylpiperidin-4-yl)-1H-pyrrolo[2,3-c]pyridin-1-yl)-5-fluoro-N-(2-hydroxyethyl)-N-isopropylbenzamide]
10 | ≥ 1000 | < 100 | – | CC(C)N(C)C(=O)c1cc(F)ccc1-n1cc(C2CCN(CC3CCOCC3)CC2)c2ccncc21 [Example 4, 5-fluoro-N-isopropyl-N-methyl-2-(3-(1-((tetrahydro-2H-pyran-4-yl)methyl)piperidin-4-yl)-1H-pyrrolo[2,3-c]pyridin-1-yl)benzamide]
11 | < 100 | < 100 | – | CC(C)N(C)C(=O)c1cc(F)ccc1-n1cc([C@H]2CCCN(Cc3ccc4c(c3)[nH]c(=O)n4CCO)C2)c2ccncc21 (single isomer, unassigned) [Example 44A]
12 | 100 to 1000 | < 100 | – | CC(C)N(C)C(=O)c1cc(F)ccc1-n1cc(C2CCN(Cc3ccc(Cl)cc3)CC2)c2ccncc21 [Example 10, 2-(3-(1-(4-chorobenzyl)piperidin-4-yl)-1H-pyrrolo[2,3-c]pyridin-1-yl)-5-fluoro-N-isopropyl-N-methylbenzamide]
13 | 100 to 1000 | < 100 | – | CC(C)N(C)C(=O)c1cc(F)ccc1-n1cc(C2CCN(CCc3ccc(C(C)(C)C#N)cc3)CC2)c2ccncc21 [Example 29, 2-(3-(1-(4-(2-cyanopropan-2-yl)phenethyl)piperidin-4-yl)-1H-pyrrolo[2,3-c]pyridin-1-yl)-5-fluoro-N-isopropyl-N-methylbenzamide]
14 | < 100 | < 100 | – | CC(C)N(C)C(=O)c1cc(F)ccc1-n1cc(C2CCN(Cc3ccc4cc(C#N)[nH]c4c3)CC2)c2ccncc21 [Example 8, 2-(3-(1-((2-cyano-1H-indol-6-yl)methyl)piperidin-4-yl)-1H-pyrrolo[2,3-c]pyridin-1-yl)-5-fluoro-N-isopropyl-N-methylbenzamide]
15 | – | < 100 | ≥ 1000 | CC(C)N(C)C(=O)c1cc(F)ccc1-n1cc(C2CCC(NCc3ccc4[nH]c(=O)[nH]c4c3)CC2)c2ccncc21 (single isomer, unassigned) [Example 60A, 5-fluoro-N-isopropyl-N-methyl-2-(3-(4-(((2-oxo-2,3-dihydro-1H-benzo[d]imidazol-5-yl)methyl)amino)cyclohexyl)-1H-pyrrolo[2,3-c]pyridin-1-yl)benzamide]
16 | ≥ 1000 | < 100 | – | CC(C)N(C)C(=O)c1cc(F)ccc1-n1cc(C2CCC(N(C)C)CC2)c2ccncc21 (single isomer, unassigned) [Example 54, 2-(3-(4-(dimethylamino)cyclohexyl)-1H-pyrrolo[2,3-c]pyridin-1-yl)-5-fluoro-N-isopropyl-N-methylbenzamide]
17 | < 100 | < 100 | – | CC(C)N(C(=O)c1cc(F)ccc1-n1cc(C2CN(CC[C@H]3CC[C@H](NC(=O)OC(C)(C)C)CC3)C2)c2ccncc21)C(C)C [Example 136, tert-butyl ((1r,4r)-4-(2-(3-(1-(2-(diisopropylcarbamoyl)-4-fluorophenyl)-1H-pyrrolo[2,3-c]pyridin-3-yl)azetidin-1-yl)ethyl)cyclohexyl)carbamate]
18 | 100 to 1000 | < 100 | – | CC(C)N(C)C(=O)c1cc(F)ccc1-n1c(=O)n(C2CCN(CC[C@H]3CC[C@H](NS(C)(=O)=O)CC3)CC2)c2ccncc21 [Example 78, 5-fluoro-N-isopropyl-N-methyl-2-(1-(1-(2-((1r,4r)-4-(methylsulfonamido)cyclohexyl)ethyl)piperidin-4-yl)-2-oxo-1,2-dihydro-3H-imidazo[4,5-c]pyridin-3-yl)benzamide]
19 | 100 to 1000 | < 100 | – | CC(C)N(C)C(=O)c1cc(F)ccc1-n1cc(C2CCN(CCN3CCC(NS(C)(=O)=O)CC3)CC2)c2ccncc21 [Example 93, 5-fluoro-N-isopropyl-N-methyl-2-(3-(1-(2-(4-(methylsulfonamido)piperidin-1-yl)ethyl)piperidin-4-yl)-1H-pyrrolo[2,3-c]pyridin-1-yl)benzamide]
20 | < 100 | < 100 | – | Cc1c(CN2CCC(c3cn(-c4ccc(F)cc4C(=O)N(C)C(C)C)c4cncnc34)CC2)ccc2[nH]c(C#N)cc12 [Example 63, 2-(7-(1-((2-cyano-4-methyl-1H-indol-5-yl)methyl)piperidin-4-yl)-5H-pyrrolo[3,2-d]pyrimidin-5-yl)-5-fluoro-N-isopropyl-N-methylbenzamide]
